The values below come from ChEMBL document CHEMBL1133687, “Structure-based design of novel bicyclic nonpeptide inhibitors for the src SH2 domain” (J Med Chem, 2000).

SMILES strings stand for the structures.

The target in this experiment is Proto-oncogene tyrosine-protein kinase Src (Homo sapiens, UniProt P12931). Description: Binding affinity against Src SH2 domain in competitive fluorescence polarization assay. A general note: In fluorescence polarisation assays a small probe gives low polarisation when free and higher when bound to something large.
Sequence of Proto-oncogene tyrosine-protein kinase Src (P12931 2-536 limits assumed): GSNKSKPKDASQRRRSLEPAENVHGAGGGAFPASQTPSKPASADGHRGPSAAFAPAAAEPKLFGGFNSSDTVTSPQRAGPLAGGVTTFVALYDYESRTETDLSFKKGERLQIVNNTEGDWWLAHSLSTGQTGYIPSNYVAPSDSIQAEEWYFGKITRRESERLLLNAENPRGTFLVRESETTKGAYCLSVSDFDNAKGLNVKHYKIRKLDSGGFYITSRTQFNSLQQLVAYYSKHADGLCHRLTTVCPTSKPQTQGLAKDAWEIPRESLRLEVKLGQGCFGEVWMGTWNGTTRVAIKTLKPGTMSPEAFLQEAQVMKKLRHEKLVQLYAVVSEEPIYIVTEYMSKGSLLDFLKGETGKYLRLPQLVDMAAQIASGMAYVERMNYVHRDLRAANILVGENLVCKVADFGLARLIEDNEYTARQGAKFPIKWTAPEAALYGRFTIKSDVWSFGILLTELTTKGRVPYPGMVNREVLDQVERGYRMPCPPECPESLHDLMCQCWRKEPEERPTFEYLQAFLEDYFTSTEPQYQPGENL
A word on the IC50: it is the midpoint of a concentration-inhibition curve. A low value points to higher potency. For the compound `CC(=O)N[C@@H](Cc1ccc(OP(=O)(O)O)cc1)C(=O)N[C@H]1CCCCc2cc(OCC3CCCCC3)c(C(N)=O)cc21`, the IC50 worked out at 100 nM. That is a sub-micromolar value. For `CC(=O)N[C@@H](Cc1ccc(OP(=O)(O)O)cc1)C(=O)N[C@H]1CCCOc2cc(OCC3CCCCC3)c(C(N)=O)cc21`, the IC50 worked out at 200 nM. The same measure for `CC(=O)N[C@@H](Cc1ccc(OP(=O)(O)O)cc1)C(=O)N[C@@H]1CCCCc2cc(OCC3CCCCC3)c(C(N)=O)cc21`: 8100 nM; for `CC(=O)N[C@@H](Cc1ccc(OP(=O)(O)O)cc1)C(=O)N[C@@H]1CCCOc2cc(OCC3CCCCC3)c(C(N)=O)cc21`: 1600 nM.

As to `CC[C@H](C)[C@H](NC(=O)[C@H](CCC(=O)O)NC(=O)[C@H](CCC(=O)O)NC(=O)[C@@H](N)Cc1ccc(OP(=O)(O)O)cc1)C(=O)O`, the IC50 was found to be 5600 nM.
